Assay results taken from PubChem BioAssay (NCI).
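Interpolation was linear, between the two tested concentrations surrounding the appropriate level; five concentrations were tested over 48 hours in 96-well plates. TGI denotes the concentration required for complete inhibition of growth.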

Columns and labels:
Experiment in all cases: NCI-60 cell line screen, 48 h
786-0 renal = test system: 786-0 renal
A498 renal = test system: A498 renal
A549 NSCLC = test system: A549 NSCLC
ACHN renal = test system: ACHN renal
CAKI-1 renal = test system: CAKI-1 renal
CCRF-CEM leukemia = test system: CCRF-CEM leukemia
DU-145 prostate = test system: DU-145 prostate
EKVX NSCLC = test system: EKVX NSCLC
HCC-2998 colon = test system: HCC-2998 colon
HCT-116 colon = test system: HCT-116 colon
HCT-15 colon = test system: HCT-15 colon
HL-60(TB) leukemia = test system: HL-60(TB) leukemia
HOP-62 NSCLC = test system: HOP-62 NSCLC
HOP-92 NSCLC = test system: HOP-92 NSCLC
HS 578T breast = test system: HS 578T breast
HT29 colon = test system: HT29 colon
IGROV1 ovarian = test system: IGROV1 ovarian
K-562 leukemia = test system: K-562 leukemia
LOX IMVI melanoma = test system: LOX IMVI melanoma
M14 melanoma = test system: M14 melanoma
MALME-3M melanoma = test system: MALME-3M melanoma
MCF7 breast = test system: MCF7 breast
MDA-MB-231 breast = test system: MDA-MB-231 breast
MDA-MB-435 = test system: MDA-MB-435
MDA-N = test system: MDA-N
MOLT-4 leukemia = test system: MOLT-4 leukemia
NCI-H23 lung = test system: NCI-H23 lung
NCI-H460 lung = test system: NCI-H460 lung
NCI-H522 lung = test system: NCI-H522 lung
NCI/ADR-RES ovarian = test system: NCI/ADR-RES ovarian
OVCAR-3 ovarian = test system: OVCAR-3 ovarian
OVCAR-4 ovarian = test system: OVCAR-4 ovarian
OVCAR-5 ovarian = test system: OVCAR-5 ovarian
OVCAR-8 ovarian = test system: OVCAR-8 ovarian
PC-3 prostate = test system: PC-3 prostate
RPMI-8226 leukemia = test system: RPMI-8226 leukemia
RXF 393 renal = test system: RXF 393 renal
SF-268 CNS = test system: SF-268 CNS
SF-295 CNS = test system: SF-295 CNS
SF-539 CNS = test system: SF-539 CNS
SK-MEL-2 melanoma = test system: SK-MEL-2 melanoma
SK-MEL-28 melanoma = test system: SK-MEL-28 melanoma
SK-MEL-5 melanoma = test system: SK-MEL-5 melanoma
SK-OV-3 ovarian = test system: SK-OV-3 ovarian
SNB-19 CNS = test system: SNB-19 CNS
SNB-75 CNS = test system: SNB-75 CNS
SR leukemia = test system: SR leukemia
SW-620 colon = test system: SW-620 colon
T-47D breast = test system: T-47D breast
TK-10 renal = test system: TK-10 renal
U251 CNS = test system: U251 CNS
UACC-257 melanoma = test system: UACC-257 melanoma
UO-31 renal = test system: UO-31 renal
COLO 205 colon = test system: COLO 205 colon
KM12 colon = test system: KM12 colon
NCI-H226 lung = test system: NCI-H226 lung
SN12C renal = test system: SN12C renal
UACC-62 melanoma = test system: UACC-62 melanoma

`COC(=O)c1c2c(cc3c1CC1(Cc4cc5c(cc4C1)CCC5)C3)CCC2` showed a TGI (786-0 renal) greater than 100 µM, a TGI (A498 renal) greater than 100 µM and a TGI (A549 NSCLC) greater than 100 µM. For the same molecule, the TGI (ACHN renal) was greater than 100 µM, the TGI (CAKI-1 renal) was greater than 100 µM and the TGI (CCRF-CEM leukemia) was greater than 100 µM. It also gave a TGI (DU-145 prostate) greater than 100 µM, a TGI (EKVX NSCLC) greater than 100 µM and a TGI (HCC-2998 colon) greater than 100 µM. For the same molecule, the TGI (HCT-116 colon) was greater than 100 µM, the TGI (HCT-15 colon) was greater than 100 µM and the TGI (HL-60(TB) leukemia) was greater than 100 µM. For the same molecule, the TGI (HOP-62 NSCLC) was greater than 100 µM, the TGI (HOP-92 NSCLC) was greater than 100 µM and the TGI (HS 578T breast) was greater than 100 µM. For the same molecule, the TGI (HT29 colon) was greater than 100 µM, the TGI (IGROV1 ovarian) was greater than 100 µM and the TGI (K-562 leukemia) was greater than 100 µM. For the same molecule, the TGI (LOX IMVI melanoma) was greater than 100 µM, the TGI (M14 melanoma) was greater than 100 µM and the TGI (MALME-3M melanoma) was greater than 100 µM. For the same molecule, the TGI (MCF7 breast) was greater than 100 µM, the TGI (MDA-MB-231 breast) was greater than 100 µM and the TGI (MDA-MB-435) was greater than 100 µM. The TGI (MDA-N) was greater than 100 µM, the TGI (MOLT-4 leukemia) was greater than 100 µM and the TGI (NCI-H23 lung) was greater than 100 µM. For the same molecule, the TGI (NCI-H460 lung) was greater than 100 µM, the TGI (NCI-H522 lung) was greater than 100 µM and the TGI (NCI/ADR-RES ovarian) was greater than 100 µM. The TGI (OVCAR-3 ovarian) was greater than 100 µM, the TGI (OVCAR-4 ovarian) was greater than 100 µM and the TGI (OVCAR-5 ovarian) was greater than 100 µM. It also gave a TGI (OVCAR-8 ovarian) greater than 100 µM, a TGI (PC-3 prostate) greater than 100 µM and a TGI (RPMI-8226 leukemia) greater than 100 µM. The TGI (RXF 393 renal) was greater than 100 µM, the TGI (SF-268 CNS) was greater than 100 µM and the TGI (SF-295 CNS) was greater than 100 µM. The TGI (SF-539 CNS) was greater than 100 µM, the TGI (SK-MEL-2 melanoma) was greater than 100 µM and the TGI (SK-MEL-28 melanoma) was greater than 100 µM. The TGI (SK-MEL-5 melanoma) was greater than 100 µM, the TGI (SK-OV-3 ovarian) was greater than 100 µM and the TGI (SNB-19 CNS) was greater than 100 µM. It also gave a TGI (SNB-75 CNS) greater than 100 µM, a TGI (SR leukemia) greater than 100 µM and a TGI (SW-620 colon) greater than 100 µM. The TGI (T-47D breast) was greater than 100 µM, the TGI (TK-10 renal) was greater than 100 µM and the TGI (U251 CNS) was greater than 100 µM. For the same molecule, the TGI (UACC-257 melanoma) was greater than 100 µM and the TGI (UO-31 renal) was greater than 100 µM.
`CC(=O)N=C1N(/C=C2\C(=O)Oc3ccccc3C2=O)C(=O)/C(=C/c2ccccc2Cl)N1C` showed a TGI (786-0 renal) greater than 100 µM, a TGI (A498 renal) of 96.7 µM and a TGI (A549 NSCLC) greater than 100 µM. It also gave a TGI (ACHN renal) greater than 100 µM, a TGI (CAKI-1 renal) greater than 100 µM and a TGI (CCRF-CEM leukemia) greater than 100 µM. It also gave a TGI (COLO 205 colon) greater than 100 µM, a TGI (DU-145 prostate) greater than 100 µM and a TGI (EKVX NSCLC) greater than 100 µM. For the same molecule, the TGI (HCC-2998 colon) was greater than 100 µM, the TGI (HCT-116 colon) was greater than 100 µM and the TGI (HCT-15 colon) was greater than 100 µM. It also gave a TGI (HL-60(TB) leukemia) greater than 100 µM, a TGI (HOP-62 NSCLC) greater than 100 µM and a TGI (HS 578T breast) of 34.9 µM. It also gave a TGI (HT29 colon) greater than 100 µM, a TGI (IGROV1 ovarian) greater than 100 µM and a TGI (K-562 leukemia) greater than 100 µM. For the same molecule, the TGI (KM12 colon) was greater than 100 µM, the TGI (LOX IMVI melanoma) was greater than 100 µM and the TGI (M14 melanoma) was greater than 100 µM. The TGI (MALME-3M melanoma) was greater than 100 µM, the TGI (MCF7 breast) was greater than 100 µM and the TGI (MDA-MB-231 breast) was greater than 100 µM. It also gave a TGI (MDA-MB-435) greater than 100 µM, a TGI (MDA-N) greater than 100 µM and a TGI (MOLT-4 leukemia) greater than 100 µM. It also gave a TGI (NCI-H226 lung) greater than 100 µM, a TGI (NCI-H23 lung) greater than 100 µM and a TGI (NCI-H460 lung) greater than 100 µM. It also gave a TGI (NCI-H522 lung) greater than 100 µM, a TGI (NCI/ADR-RES ovarian) greater than 100 µM and a TGI (OVCAR-4 ovarian) greater than 100 µM. It also gave a TGI (OVCAR-5 ovarian) greater than 100 µM, a TGI (OVCAR-8 ovarian) greater than 100 µM and a TGI (PC-3 prostate) greater than 100 µM. It also gave a TGI (RPMI-8226 leukemia) greater than 100 µM, a TGI (RXF 393 renal) greater than 100 µM and a TGI (SF-268 CNS) greater than 100 µM. For the same molecule, the TGI (SF-295 CNS) was greater than 100 µM, the TGI (SF-539 CNS) was greater than 100 µM and the TGI (SK-MEL-2 melanoma) was greater than 100 µM. The TGI (SK-MEL-28 melanoma) was greater than 100 µM, the TGI (SK-MEL-5 melanoma) was greater than 100 µM and the TGI (SK-OV-3 ovarian) was greater than 100 µM. It also gave a TGI (SN12C renal) greater than 100 µM, a TGI (SNB-19 CNS) greater than 100 µM and a TGI (SNB-75 CNS) greater than 100 µM. The TGI (SR leukemia) was greater than 100 µM, the TGI (SW-620 colon) was greater than 100 µM and the TGI (T-47D breast) was greater than 100 µM. It also gave a TGI (U251 CNS) greater than 100 µM, a TGI (UACC-257 melanoma) greater than 100 µM and a TGI (UACC-62 melanoma) greater than 100 µM.
